# Assays:
# [1] = target: SARS-CoV-2 Main Protease (SARS-CoV-2) (UniProt P0DTD1)
# [2] = target: SARS-CoV-2 Main Protease (SARS-CoV-2) (UniProt P0DTD1); remark: listed apart in the source
# Procedure: Compounds were seeded into assay-ready plates (Greiner 384 low volume, cat 784900) using an Echo 555 acoustic dispenser, and DMSO was back-filled for a uniform concentration in assay plates (DMSO concentration maximum 1%) Screening assays were performed in duplicate at 20µM and 50µM. […] Dose response assays were performed in 12 point dilutions of 2-fold, typically beginning at 100µM. […] Reagents for Mpro assay were dispensed into the assay plate in 10µl volumes for a final volume of 20µL.
# Mpro was pre-incubated for 15 minutes at room temperature with compound before addition of substrate and a further 30 minute incubation. Protease reaction was measured in a BMG Pherastar FS with a 480/520 ex/em filter set. Raw data was mapped and normalized to high (Protease with DMSO) and low (No Protease) controls using Genedata Screener software.
SMILES,inhibition ([1]; 50.0 µM) [%],relative solubility at 20 uM,relative solubility at 100 uM,inhibition ([2]; 20.0 µM) [%],inhibition ([2]; 50.0 µM) [%],inhibition ([1]; 20.0 µM) [%],IC50 [1] [µM]
CC1(C)Cc2cccc(OCCNC(=O)c3cc(=O)[nH]c4ccc(F)cc34)c2O1,42,0.98,0.84,13.9,23.7,,
CC(c1cccc(NC(=O)Cc2cnccc2Cl)c1)N1CCOCC1 (configuration not stated),3.87,0.97,0.92,2.12,3.92,0,
Cc1ccncc1NC(=O)Cc1cccc(CO)c1,1.14,1,1,2.87,6.05,,
O=C(CCl)N1CCOc2cccc(-c3cccnc3)c21,-5.89,1,1,1.76,7.44,,
Cn1nnnc1NC(=O)Cc1csc(C(C)(C)C)n1,0,0.99,1,1.85,5.13,,
C=CC(=O)N(c1ccc(N2CCC2)cc1)C(C(=O)NC(C)(C)C)c1cccnc1 (configuration not stated),,0.97,0.93,-18.5,-17.3,0,
O=C(Nc1ccc(N(Cc2ccsc2)C(=O)Cn2nnc3ccccc32)cc1)C1CC1,62.2,0.9,0.59,69,70.2,,28.4
CC1(C)Cc2cccc(OCCNC(=O)c3cc(=O)[nH]c4cc(F)ccc34)c2O1,13.8,0.97,0.97,36.7,69.9,,
COc1ncccc1N(C)C(=O)C1CCOc2ccc(Cl)cc21 (configuration not stated),0,1,0.98,-2.61,2.54,,
C=CC(=O)N(c1ccc(C(C)(C)C)cc1)C(C(=O)NC(C)(C)C)c1cccnc1 (configuration not stated),16.1,0.96,0.89,12.7,27.2,0,
Cc1nn(C(C)C)c(C)c1CC(=O)Nc1nncn1C1CC1,5.29,1,1,-5.19,-6.89,,
N#Cc1cccc(NC(=O)Nc2c[nH]c3ncccc23)c1,19.9,1,0.91,,47.3,0,
O=C(c1cc(=O)[nH]c2ccc(Cl)cc12)N1CCN(S(=O)(=O)c2ccccc2)CC1,22.8,0.94,0.93,10.6,23.9,,
C#CCOc1ccc(N(C(=O)C=C)C(C(=O)NC(C)(C)C)c2cccnc2)cc1 (configuration not stated),,1,1,-13.4,-14.8,0,
O=C1NC(c2cccnc2)C(=O)N1c1cccc(Cl)c1 (configuration not stated),69.6,0.85,0.91,18.1,33.9,,57.8
C=CC(=O)N(c1ccc(C(C)OC)cc1)C(C(=O)Nc1ccc(OC)cc1C)c1cccnc1 (configuration not stated),,0.99,0.97,2.91,6.9,0,

SMILES,inhibition ([1]; 50.0 µM) [%],relative solubility at 20 uM,relative solubility at 100 uM,inhibition ([2]; 20.0 µM) [%],inhibition ([2]; 50.0 µM) [%],inhibition ([1]; 20.0 µM) [%],IC50 [1] [µM]
O=C(/C=C/C=C/c1ccc2c(c1)OCO2)N1CCCCC1,,1,0.97,,,0,
COc1cc(Cl)cc(OC(=O)Nc2cccnc2)c1,,1,1,,,,
Cc1nnc(NC(=O)[C@@H]2COc3ccc(Cl)cc32)n1C1CC1 (stereo in doubt),,1,1,,,,
O=C(CCl)N1CCN(Cc2ccsc2)CC1,,1,0.99,98.8,99.4,,
C=CC(=O)N1CC(NCC2=CNC3C=CC(C#N)=CC23)C1 (configuration not stated),,1,0.95,,,,
O=C(CCl)N1CCN(Cc2cccs2)CC1,,1,1,94.5,99,,
O=C(CCl)Nc1cccc(N2CCCC2=O)c1,,1,1,27.1,51.4,,
CCn1c(CSc2nc(C)c(C)n2CC2CCCO2)nc2cc(S(=O)(=O)N(C)C)ccc21 (configuration not stated),,0.85,0.84,-23.6,-3.59,,
Cc1ccncc1NC(=O)Cc1cc(Cl)cc(OC2CC(=O)N2)c1 (configuration not stated),,0.99,1,,,,
O=C(Nc1cnccc1CO)C1CCOc2ccc(Cl)cc21 (configuration not stated),,0.94,0.93,,,,
N#Cc1cccc(C2CN(C(=O)CCl)Cc3ccccc32)c1 (configuration not stated),,1,0.99,98.8,95.3,,
CNc1ccc(N(Cc2ccsc2)C(=O)Cn2nnc3ccccc32)cc1,,0.99,0.77,57.1,82.6,,
Cc1ccncc1NC(=O)Cc1cccc(Cl)c1,,1,1,,,,
C#Cc1ncccc1NC(=O)Cc1cccc(Cl)c1,7.93,,,-2.01,3.62,,
CC(C)n1c(NC(=O)C2CCOc3ccccc32)nc2ccccc21 (configuration not stated),8.85,,,27.9,-2.12,,
C=CC(=O)N(C1CC(C)OC1=O)C(C(=O)NC(C)(C)C)c1cccnc1 (configuration not stated),0,,,-2.18,1.34,,
